US20120009320A1, “COMPOSITIONS COMPRISING MONATIN AND CALCIUM” (priority 2009, published 2012)
Where a name gives a salt, the structure may show the parent alone.

Legend:
[1] = Sweetness match of monatin-sweetened strawberry yogurt to 8% sucrose target; format: in vivo
Procedure: A strawberry yogurt sweetened with about 8% sucrose was prepared by conventional methods common to one skilled in the art of yogurt manufacturing to serve as a sweetness target. […] The monatin-sweetened yogurt that most closely matched the sweetness of the target sucrose sample was chosen.

[2] = Sweetness of monatin stereoisomers relative to sucrose by weight (from SEV); format: in vivo; settings: general statement of the description; listed as R,R stereoisomer of monatin, mono potassium salt
Procedure: (§1) As used herein, “sucrose equivalency value”, or SEV, is a measure of sweetness. The SEV is the concentration (% w/v) of a sucrose solution that gives a degree of sweetness that is perceived to be the same degree of sweetness as that of a test sample. For purposes of this disclosure, the SEV of an aqueous or dairy solution containing monatin is determined through comparison of the monatin-containing solution to a series of sucrose containing solutions prepared in the same medium (see Example 1).
Monatin-containing compositions are described herein as being “X” times as sweet as sucrose. The various stereoisomers of monatin are also described as being “X” times sweeter than sucrose. These values are determined from the SEV of the compositions.

panelists [3] = assay: Sweetness matching of monatin/salt combinations in water pH 7 and citric/citrate buffer pH 3, Examples 3-5; format: in vivo, human; settings: Monatin only (40 ppm), no salt
Procedure: Test and reference solutions were prepared in the same medium. The SEVs of monatin/salt combinations at the appropriate concentrations were measured and compared to the SEV of monatin measured in the absence of any salts. […] Monatin-containing test samples and sucrose references were prepared in the same medium. Based on the previous observations that the sweetness of monatin relative to sucrose is sweeter at acidic pH, this study was carried out under two pH conditions; specifically, in water at pH 7-7.5 and in a citric/citrate buffer at pH 3.0. 2R,4R-Monatin mono potassium salt was used as an illustrative form of monatin for the experiments below. All monatin solutions were prepared ‘as is’, i.e., a 40 ppm monatin solution is 40 ppm of monatin mono potassium salt. A sweetness matching procedure was adopted. […] Each test sample was either monatin control or monatin plus designated salt at the stated concentration. Panelists were instructed to taste the test sample and then to identify the reference sample that matched the perceived sweetness of the test sample. If the sweetness of the test sample was judged to fall between that of two references, panelists were instructed to estimate sweetness to one decimal point. Panelists evaluated each sample in duplicate. Results for each test sample were averaged. […] The five samples were tested at pH 7 (water medium) and at pH 3 (citric/citrate buffer). […] The weight percent of calcium in the salt is different for each of the calcium salts. As such, the weight percent of the calcium salt in each sample is calculated in order to determine how much salt is needed to deliver 1200 ppm of calcium cations. […] The weight percent of the other calcium salts is similarly calculated based on the molar weight percent of calcium in the calcium salt. […] The samples were created at pH 3 and pH 7. The impact of other metal ions, specifically potassium and magnesium, (i.e. […] These ions were tested in the form and concentrations found in cow's milk.

panelists [4] = assay: Sensory panel sweetness matching against sucrose references (SEV) in milk and water media, Example 1; format: in vivo, human; settings: for sweetness enhancement of water/calcium solution over monatin in water alone: c. 120 mg calcium/100 ml as Gluconal CAL
Procedure: as §1
Monatin compositions were prepared by adding monatin to each of the solutions below at 20 ppm and 40 ppm. Sucrose reference compositions were also prepared. • Milk (0% fat) • Milk (0% fat) adjusted to pH 4.6 with lactic acid • Milk (2% fat) • Milk (3.6% fat) • Water • Water, adjusted to pH 4.6 with lactic acid • Water containing c. 120 mg calcium/100 ml (Ca^2+ added as Gluconal CAL® soluble salt) • Water containing 4.5% lactose • Water containing c. 120 mg calcium/100 mL plus 4.5% lactose • Water containing 3% milk protein isolate (Davisco BiPro)
(§2) Panelists (8-10) were presented with a range (2-12%; w/v) of sucrose reference solutions prepared in each of the mediums listed above as well as two monatin test solutions at 20 ppm and 40 ppm prepared in the same manner. The panelists were instructed to taste the test sample and then to identify the reference sample that matched the perceived sweetness of the test sample. If the sweetness of the test sample was judged to fall between that of two references, panelists were asked to estimate sweetness to one decimal point. Panelists evaluated each sample in duplicate. All results for each test sample were averaged.

panelists [5] = assay: Concentration-response of monatin sweetness (SEV) in milk and diluted yogurt, Example 2; format: in vivo, human
Procedure: Monatin, aspartame and sucralose samples were prepared in milk (2% fat) and diluted with plain, fat-free yogurt. Sucrose reference solutions were prepared in solutions of the same medium.
as §2, with “and a single” for “prepared in each of the mediums listed above as well as two monatin”, “sample. They” for “solutions at 20 ppm and 40 ppm prepared in the same manner. The panelists”
Sweetener test samples and sucrose references were prepared as solutions in the following mediums: • (1) Milk (2% fat) at pH 6.8. • (2) A diluted plain (unsweetened and unflavored) yogurt was sheared with water (80 parts yogurt and 20 parts water) to yield an acidic solution based on fermented milk with a final pH of 4.6.

[6] = Diluted Yogurt (pH 4.6), monatin 10 ppm
[7] = Diluted Yogurt (pH 4.6), monatin 20 ppm
[8] = Diluted Yogurt (pH 4.6), monatin 30 ppm
[9] = Diluted Yogurt (pH 4.6), monatin 40 ppm
[10] = Diluted Yogurt (pH 4.6), monatin 50 ppm
[11] = Milk, 2% fat (pH 6.8), monatin 5 ppm
[12] = Milk, 2% fat (pH 6.8), monatin 10 ppm
[13] = Milk, 2% fat (pH 6.8), monatin 20 ppm
[14] = Milk, 2% fat (pH 6.8), monatin 30 ppm
[15] = Milk, 2% fat (pH 6.8), monatin 40 ppm
[16] = Milk, 2% fat (pH 6.8), monatin 50 ppm

SMILES: NC(CC(O)(Cc1c[nH]c2ccccc12)C(=O)O)C(=O)O (stereo not drawn) [R,R-Monatin, 2R,4R-Monatin mono potassium salt]
- monatin concentration that most closely matched the sweetness of yogurt sweetened to 8% sucrose ([1]; strawberry yogurt): about 25 ppm
- times as sweet as sucrose ([1]; strawberry yogurt): about 3200 times
- SEV ([1]; strawberry yogurt with 25 ppm R,R monatin): about 8%
- times sweeter than sucrose by weight [2]: 2000-2400 times
- Sucrose Equivalency Value (panelists [3]; pH 3.0 citric/citrate buffer): 8.6%
- Sucrose Equivalency Value (panelists [3]; pH 7.0 water): 8.4%
- decrease in sweetness of water solution having 4.5% lactose compared to water solution only containing monatin (panelists [4]; 20 ppm monatin): 22%
- sweetness enhancement of 0% fat milk at pH 4.6 over 0% fat milk at pH 6.4 (panelists [4]; 20 ppm monatin): 13%
- SEV (panelists [4]; 20 ppm monatin, Milk (0% fat), pH 6.4): 5.3 %; w/v
- SEV (panelists [4]; 20 ppm monatin, Milk (0% fat; yogurt + milk), pH 4.6): 6.0 %; w/v
- SEV (panelists [4]; 20 ppm monatin, Milk (2% fat), pH 6.4): 5.6 %; w/v
- SEV (panelists [4]; 20 ppm monatin, Milk (3.6% fat), pH 6.4): 5.2 %; w/v
- SEV (panelists [4]; 20 ppm monatin, Water + 120 mg/100 mL calcium (Gluconal CAL), pH 7.6): 6.4 %; w/v
- SEV (panelists [4]; 20 ppm monatin, Water + 3% whey protein isolate, pH 7.8): 5.2 %; w/v
- SEV (panelists [4]; 20 ppm monatin, Water + 4.5% lactose, pH 7.8): 4.0 %; w/v
- SEV (panelists [4]; 20 ppm monatin, Water + calcium + lactose, pH 7.8): 5.6 %; w/v
- SEV (panelists [4]; 20 ppm monatin, Water + lactic acid, pH 4.6): 6.0 %; w/v
- SEV (panelists [4]; 20 ppm monatin, Water, pH 7.8): 5.1 %; w/v
- sweetness enhancement of water/calcium solution over monatin in water alone (panelists [4]; 20 ppm monatin): 25%
- decrease in sweetness of water solution having 4.5% lactose compared to water solution only containing monatin (panelists [4]; 40 ppm monatin): 18%
- sweetness enhancement of 0% fat milk at pH 4.6 over 0% fat milk at pH 6.4 (panelists [4]; 40 ppm monatin): 16%
- SEV (panelists [4]; 40 ppm monatin, Milk (0% fat), pH 6.4): 8.5 %; w/v
- SEV (panelists [4]; 40 ppm monatin, Milk (0% fat; yogurt + milk), pH 4.6): 9.9 %; w/v
- SEV (panelists [4]; 40 ppm monatin, Milk (2% fat), pH 6.4): 8.7 %; w/v
- SEV (panelists [4]; 40 ppm monatin, Milk (3.6% fat), pH 6.4): 8.3 %; w/v
- SEV (panelists [4]; 40 ppm monatin, Water + 120 mg/100 mL calcium (Gluconal CAL), pH 7.6): 9.0 %; w/v
- SEV (panelists [4]; 40 ppm monatin, Water + 3% whey protein isolate, pH 7.8): 7.6 %; w/v
- SEV (panelists [4]; 40 ppm monatin, Water + 4.5% lactose, pH 7.8): 6.3 %; w/v
- SEV (panelists [4]; 40 ppm monatin, Water + calcium + lactose, pH 7.8): 8.0 %; w/v
- SEV (panelists [4]; 40 ppm monatin, Water + lactic acid, pH 4.6): 7.9 %; w/v
- SEV (panelists [4]; 40 ppm monatin, Water, pH 7.8): 7.7 %; w/v
- sweetness enhancement of water/calcium solution over monatin in water alone (panelists [4]; 40 ppm monatin): 17%
- impact of milk fat on relative sweetness values of monatin solutions prepared from milk (panelists [4]; milk 0%, 2%, 3.6% fat): essentially unaffected
- Relative Sweetness (panelists [5]; [6]): 4,000 ×sucrose
- SEV (panelists [5]; [6]): 4.0 % sucrose; w/v
- Relative Sweetness (panelists [5]; [7]): 3,300 ×sucrose
- SEV (panelists [5]; [7]): 6.6 % sucrose; w/v
- Relative Sweetness (panelists [5]; [8]): 3,100 ×sucrose
- SEV (panelists [5]; [8]): 9.3 % sucrose; w/v
- Relative Sweetness (panelists [5]; [9]): 2,625 ×sucrose
- SEV (panelists [5]; [9]): 10.5 % sucrose; w/v
- Relative Sweetness (panelists [5]; [10]): 2,280 ×sucrose
- SEV (panelists [5]; [10]): 11.4 % sucrose; w/v
- Relative Sweetness (panelists [5]; [11]): 4,000 ×sucrose
- SEV (panelists [5]; [11]): 2.0 % sucrose; w/v
- Relative Sweetness (panelists [5]; [12]): 3,000 ×sucrose
- SEV (panelists [5]; [12]): 3.0 % sucrose; w/v
- Relative Sweetness (panelists [5]; [13]): 2,750 ×sucrose
- SEV (panelists [5]; [13]): 5.5 % sucrose; w/v
- Relative Sweetness (panelists [5]; [14]): 2,270 ×sucrose
- SEV (panelists [5]; [14]): 6.8 % sucrose; w/v
- Relative Sweetness (panelists [5]; [15]): 2,100 ×sucrose
- SEV (panelists [5]; [15]): 8.4 % sucrose; w/v
- Relative Sweetness (panelists [5]; [16]): 1,780 ×sucrose
- SEV (panelists [5]; [16]): 8.9 % sucrose; w/v
